Source: patent US20200181284A1, “EPIGENETIC INHIBITORS FOR SENSITIZING HEMATOLOGIC OR OTHER MALIGNANCIES TO GLUCOCORTICOID THERAPY” (UNIVERSITY OF SOUTHERN CALIFORNIA, priority 2017, published 2020)

Assays:
[1] = system: G9a and GLP coactivator function with GR; experiment: Transient MMTV-LUC luciferase reporter gene assay in CV-1 cells (GR, GRIP1, G9a or GLP); assay type: cell-based, human
Experimental: CV-1 cells were plated in hormone-free medium with 5% charcoal-stripped serum in 24-well plates the day before transfection. Cells were transfected using Lipofectamine 2000 (Invitrogen) with the indicated plasmids according to the manufacturer's protocol. After transfection, the cells were grown in hormone-free medium for 48 h in the presence or absence of 100 nM dex. Cell lysis and luciferase assays on cell extracts were performed with Promega luciferase assay kit. An aliquot of the cell lysate was reserved for immunoblot analysis of input samples. The results were normalized as indicated and presented as the mean±SEM of at least four independent experiments.
The results as shown in FIGS. 20A-20D generally highlight that G9a and GLP PTMs regulate their coactivator function. For FIG. 20A, CV-1 cells were transfected with MMTV-LUC reporter plasmid (200 ng) and plasmids encoding GR (1 ng), Grip1 (100 ng) and HA-labeled full length (FL) hG9a wild type or K185A or K185R mutants (150 or 400 ng) as indicated. Cells were grown with 100 nM dex or the equivalent amount of ethanol for 48 h and assayed for luciferase activity. Relative luciferase units are normalized to sample 3 and represent mean±SEM for eight independent experiments. p-value was calculated using a paired t-test. *p≤0.05, **p≤0.01. Whole-cell extracts were analyzed for G9a expression by immunoblot with anti-HA antibody. For FIG. 20B, transient reporter gene assays were performed as in A with HA-labeled hGLP WT or hGLP K205A (150 or 400 ng) as indicated. Relative luciferase units are normalized to sample 3 and represent mean±SEM for six independent experiments. p-value was calculated using a paired t-test. *p≤0.05. […] Relative luciferase units are normalized to sample 3 and represent mean±SEM for four independent experiments. p-value was calculated using a paired t-test. * * *p≤0.001. […] Relative luciferase units are normalized to sample 3 and represent mean±SEM for four independent experiments. p-value was calculated using a paired t-test. *p≤0.05. […]

[2] = system: GR-HP1γ interaction; experiment: Proximity ligation assay of GR and HP1γ in A549 cells; assay type: cell-based, human
Experimental: The experiments were performed following the manufacturer's instructions as previously described. Cells were grown on coverslips in 12-well plates, fixed in methanol for 2 min, and then washed twice in PBS. Firstly, the samples were saturated using the blocking solution, then different pairs of primary antibodies (HP1γ (Abcam ab10480) and GR (Santa Cruz sc-393232) in order to analyze HP1γ-GR, G9a (Sigma G6919) and HP1γ (Abcam ab56978) in order to analyze HP1γ-G9a interaction and HA-Tag (6E2) (Cell signaling #2367) and HP1γ (Abcam ab10480) in order to analyze HA- HP1γ interaction) were incubated with the fixed cells for 1 h at 37° C. […] Afterwards, the samples were mounted with Duolink II Mounting Medium containing Dapi in order to counterstain nuclei, and then analyzed on Zeiss Imager.Z1 fluorescence microscope. For each sample interactions were counted for 1000 cells using Image J software [46b].
The results as shown in FIGS. 18A-18E generally highlight that G9a and GLP methylation is required for HP1γ-G9a/GLP-GR ternary complex formation. […] The detected interactions are indicated by red dots. […] The number of interactions detected by Image J analysis is shown as the mean±SEM of three independent experiments. p-value was determined using a paired t-test. **p≤0.01. […] Whole-cell extracts were analyzed for G9a, GLP, GR, HP1γ and β-actin expression by immunoblot. […]

## Clc1ccc(N/N=C(\c2ccccc2)c2ccccn2)nc1 [JIB-04, 5-chloro-N-[(E)-[phenyl(pyridin-2-yl)methylidene]amino]pyridin-2-amine]
[1]; GR, GRIP1 and wild type G9a
  dex-induced expression of the reporter gene: enhanced
[1]; mutant G9a with the methylation site mutated from lysine to arginine
  dex-induced expression of the reporter gene: no effect
[2]; A549 cells treated with dex and JIB-04
  dex-induced interaction between GR and HP1γ in PLA: enhanced

## COc1cc2c(NC3CCN(C4CCCCC4)CC3)nc(N3CCCN(C(C)C)CC3)nc2cc1OCCCN1CCCCC1 [UNC0646]
[2]; A549 cells, 2 μM UNC0646 24 h, 100 nM dex for the final 2 h
  GR-HP1γ interaction in PLA: strongly decreased

## COc1cc2c(Nc3ccc(NC(=O)c4ccccc4)cc3)ncnc2cc1OCCCN1CCOCC1 [ZM447439, N-[4-[[6-methoxy-7-(3-morpholin-4-ylpropoxy)quinazolin-4-yl]amino]phenyl]benzamide]
[1]; 100 nM dex and 2 μM ZM447439, 48 h
  coactivator function of G9a and GLP, in cooperation with GRIP1: significantly enhanced
